The source of these data is ChEMBL document CHEMBL1201862, “PubChem BioAssay data set” (2004).

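A five-concentration, 48-hour dose response in 96-well plates underlies each endpoint, interpolated linearly between surrounding concentrations. Abbreviation: GI50, concentration required for 50% inhibition of growth.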 Calls of active or inactive are those of the source. Rule as the data show it: active = GI50 up to about 1.1 µM and inactive = higher.

Among the test systems are CAKI-1; OVCAR-4; SNB-19; 786-0; UACC-257; OVCAR-3; OVCAR-8; RXF 393; SF-268; CCRF-CEM; IGROV-1; KM12; SK-MEL-5; HCT-15; RPMI-8226; HCC 2998.
Holding throughout (experiment): DTP human tumour cell line panel, 48 h

For `N#CC(/C(CCCC(=O)Nc1cccc([N+](=O)[O-])c1)=N\NC(=O)c1c(O)ccc2ccccc12)c1nc2ccccc2s1` (configuration not stated), the GI50 is 36.7 µM (inactive) in the experiment on CAKI-1; 24.3 µM (inactive) with OVCAR-4; 36.8 µM (inactive) in the experiment on SNB-19; 34.6 µM (inactive) with 786-0; 35.5 µM (inactive) in the experiment on UACC-257; 16.3 µM (inactive) with OVCAR-3. For the same compound, the GI50 with OVCAR-8 was 18.5 µM (inactive); in the experiment on RXF 393, 33.4 µM (inactive); in the experiment on SF-268, 13.1 µM (inactive); with CCRF-CEM it was 5.35 µM (inactive); in the experiment on IGROV-1, 13.3 µM (inactive); with KM12 it was 28.8 µM (inactive). Further, the GI50 in the experiment with SK-MEL-5 was 28.2 µM (inactive).
For the compound `CC1OC(n2ccc3ccc([N+](=O)[O-])cc32)C(O)C(O)C1O` (configuration not stated), the GI50 was > 100 µM (inactive) in the experiment on CAKI-1; > 100 µM (inactive) in the experiment on OVCAR-4; > 100 µM (inactive) with SNB-19; > 100 µM (inactive) in the experiment on 786-0; > 100 µM (inactive) in the experiment with UACC-257; more than 100 µM in the experiment on HCT-15. Moreover, the GI50 in the experiment with OVCAR-3, with OVCAR-8, with RPMI-8226, in the experiment with RXF 393, in the experiment with SF-268 and with CCRF-CEM was > 100 µM (inactive) in each case. Moreover, the GI50 in the experiment with IGROV-1, with KM12 and with SK-MEL-5 was > 100 µM (inactive) in each case.
On to `[O-]/[N+](=C\c1ccccc1)[C@H](COCc1ccccc1)c1ccccc1`, for which the GI50 in the experiment on HCC 2998 is > 100 µM (inactive); with SNB-19, 59.8 µM (inactive); with 786-0 it was > 100 µM (inactive); in the experiment with UACC-257, > 100 µM (inactive); with OVCAR-3 it was 27.6 µM (inactive); in the experiment with OVCAR-8, > 100 µM (inactive). Besides, the GI50 was 30.2 µM (inactive) in the experiment on RPMI-8226; 36.6 µM (inactive) in the experiment on RXF 393; 55.2 µM (inactive) in the experiment with SF-268; 50.6 µM (inactive) in the experiment on CCRF-CEM; > 100 µM (inactive) in the experiment on IGROV-1; 70.3 µM (inactive) in the experiment with KM12. For the same compound, the GI50 with SK-MEL-5 is 63.1 µM (inactive).
With `COc1cc(C(C)c2cc3c(cc2OCCNC(=O)COc2cc4c(cc2C(C)c2cc(OC)c(OC)c(OC)c2)OCO4)OCO3)cc(OC)c1OC` (configuration not stated), the GI50 was > 100 µM (inactive) in the experiment on CAKI-1; > 100 µM (inactive) in the experiment on OVCAR-4; > 100 µM (inactive) with HCC 2998; > 100 µM (inactive) in the experiment on SNB-19; 49.8 µM (inactive) in the experiment on 786-0; 6.56 µM (inactive) in the experiment with UACC-257. Also, the GI50 in the experiment on HCT-15 was 87.3 µM; in the experiment on OVCAR-3, 67.3 µM (inactive); with OVCAR-8, 49.5 µM (inactive); with RXF 393 it was > 100 µM (inactive); with SF-268, 50.4 µM (inactive); in the experiment on CCRF-CEM, 30.5 µM (inactive). For the same compound, the GI50 in the experiment on IGROV-1, in the experiment with KM12 and in the experiment on SK-MEL-5 was > 100 µM (inactive) in each case.
Regarding `CCC(=O)OC[n+]1ccc2c(C)c3[nH]c4ccc(OC)cc4c3c(C)c2c1`, the GI50 with CAKI-1 was 0.188 µM (active); in the experiment on OVCAR-4 it was 0.0865 µM (active); in the experiment with SNB-19, 1.57 µM (inactive); with 786-0, 0.176 µM (active); with UACC-257, 0.7 µM (active); with OVCAR-3 it was 1.34 µM (inactive). Moreover, the concentration for 50% growth inhibition (GI50) with OVCAR-8 is 0.0755 µM (active); with RPMI-8226 it was 0.182 µM (active); with RXF 393, 0.166 µM (active); in the experiment with SF-268, 0.24 µM (active); in the experiment with CCRF-CEM, 0.0685 µM (active); with IGROV-1, 0.048 µM (active). In addition, the values for the GI50 in the experiment on KM12 and with SK-MEL-5 were 0.0875 µM (active) and 0.728 µM (active), respectively.
Consider `O=C(Nc1ccccc1)c1ccc(Cl)c([N+](=O)[O-])c1`, for which the GI50 with CAKI-1 was 6.05 µM (inactive); in the experiment on SNB-19, 15.5 µM (inactive); in the experiment on 786-0, 4.85 µM (inactive); with UACC-257, 15.4 µM (inactive); with HCT-15, 7.24 µM; in the experiment on OVCAR-3 it was 19.1 µM (inactive). Moreover, the GI50 in the experiment on OVCAR-8 was 9.33 µM (inactive); with RPMI-8226 it was 3.88 µM (inactive); in the experiment on RXF 393, 21.7 µM (inactive); with SF-268, > 10 µM (inactive); in the experiment on CCRF-CEM, 4.14 µM (inactive); in the experiment with IGROV-1, 14.8 µM (inactive). Also, the GI50 in the experiment with KM12 was 3.09 µM (inactive); in the experiment with SK-MEL-5 it was 5.82 µM (inactive).
Take `CC(NC(=O)C(=O)N/N=C1\C[C@@H](c2ccccc2)Nc2ccccc21)c1ccccc1` (some centres not stated): the GI50 in the experiment with CAKI-1 was > 100 µM (inactive); in the experiment with OVCAR-4 it was 29.3 µM (inactive); in the experiment with HCC 2998, > 100 µM (inactive); with SNB-19, > 100 µM (inactive); in the experiment on 786-0, > 100 µM (inactive); in the experiment on UACC-257, 0.382 µM (active). Besides, the GI50 in the experiment on OVCAR-3 was > 100 µM (inactive); with OVCAR-8 it was > 100 µM (inactive); in the experiment on RXF 393 it was 53.7 µM (inactive); in the experiment on SF-268, 94.6 µM (inactive); in the experiment on KM12 it was > 100 µM (inactive).
Consider `CC(=O)NNc1nc(C)c(C(/C=C/c2ccc(Cl)cc2)=N/NC(=O)C[N+](C)(C)C)s1`, for which the GI50 in the experiment on CAKI-1, in the experiment with OVCAR-4, in the experiment with HCC 2998, in the experiment on SNB-19, in the experiment on 786-0 and in the experiment with UACC-257 was > 100 µM (inactive) in each case. The GI50 is more than 100 µM with HCT-15; > 100 µM (inactive) with OVCAR-3; > 100 µM (inactive) in the experiment with RXF 393; > 100 µM (inactive) in the experiment on SF-268; > 100 µM (inactive) in the experiment with CCRF-CEM; > 100 µM (inactive) in the experiment with IGROV-1. Besides, the GI50 in the experiment on KM12 and in the experiment with SK-MEL-5 was > 100 µM (inactive) in each case.
For the compound `Cc1ccc(Nc2nc(C)c(C(/C=C/c3ccc4c(c3)OCO4)=N/Nc3ccc([N+](=O)[O-])cc3[N+](=O)[O-])s2)c([N+](=O)[O-])c1`, the GI50 was 25.1 µM (inactive) with CAKI-1; 56.6 µM (inactive) in the experiment on OVCAR-4; 28.6 µM (inactive) in the experiment on HCC 2998; 83 µM (inactive) in the experiment on SNB-19; 91.2 µM (inactive) in the experiment on 786-0; 53 µM (inactive) with UACC-257. The GI50 is 25.8 µM in the experiment with HCT-15; 35.2 µM (inactive) in the experiment on OVCAR-3; 70.3 µM (inactive) in the experiment on OVCAR-8; 38 µM (inactive) in the experiment on RXF 393; 53.2 µM (inactive) in the experiment on SF-268; 28.2 µM (inactive) in the experiment on CCRF-CEM. Further, the GI50 in the experiment on IGROV-1 was 62.7 µM (inactive); in the experiment with KM12, 24 µM (inactive).
For `COC1(OC)c2ccccc2C2(O)c3ccccc3C(=O)C12` (configuration not stated), the GI50 in the experiment with HCC 2998 is 57.1 µM (inactive); in the experiment with SNB-19 it was 74.5 µM (inactive); with 786-0 it was 52.6 µM (inactive); in the experiment on UACC-257, 17.9 µM (inactive); in the experiment with HCT-15, 25.3 µM; with OVCAR-3, 28.8 µM (inactive). The GI50 in the experiment with OVCAR-8 is 39.4 µM (inactive); in the experiment on RPMI-8226 it was 5.79 µM (inactive); with RXF 393 it was > 100 µM (inactive); in the experiment with SF-268 it was > 100 µM (inactive); in the experiment on CCRF-CEM, 22.5 µM (inactive); in the experiment on IGROV-1, 18.2 µM (inactive). The figures for the GI50 in the experiment with KM12 and with SK-MEL-5 were 39.9 µM (inactive) and 9.16 µM (inactive), respectively.
For the compound `CC(=O)NNc1nc(C)c(C(=O)NNC(=O)C(=O)Nc2ccc(Cl)c([N+](=O)[O-])c2)s1`, the GI50 in the experiment with CAKI-1 is > 100 µM (inactive); with OVCAR-4 it was 34.4 µM (inactive); in the experiment with HCC 2998, 66.1 µM (inactive); in the experiment with SNB-19, > 100 µM (inactive); in the experiment on 786-0, 50 µM (inactive); with UACC-257, 37.4 µM (inactive). The GI50 was 49.3 µM with HCT-15; 30.4 µM (inactive) in the experiment on OVCAR-3; 54.8 µM (inactive) with OVCAR-8; 43.7 µM (inactive) with RPMI-8226; 35.8 µM (inactive) in the experiment on SF-268; 21.9 µM (inactive) with CCRF-CEM. The GI50 in the experiment on IGROV-1 was > 100 µM (inactive); in the experiment with KM12 it was 88.9 µM (inactive); in the experiment with SK-MEL-5, > 100 µM (inactive).
For `CNS(=O)(=O)NNS(=O)(=O)c1ccc(F)cc1`, the GI50 with CAKI-1 was > 100 µM (inactive); with OVCAR-4 it was > 100 µM (inactive); in the experiment on SNB-19 it was > 100 µM (inactive); with 786-0, > 100 µM (inactive); with UACC-257, > 100 µM (inactive); in the experiment on HCT-15, more than 100 µM. The GI50 in the experiment on OVCAR-3, with OVCAR-8, with RPMI-8226, in the experiment with RXF 393, in the experiment on SF-268 and with CCRF-CEM was > 100 µM (inactive) each time. The GI50 with IGROV-1, in the experiment on KM12 and in the experiment with SK-MEL-5 was > 100 µM (inactive) throughout.
As to `O=C(/C=C\c1cccc2ccccc12)c1ccc(Cl)cc1Cl`, the GI50 with CAKI-1 was 47.5 µM (inactive); in the experiment on OVCAR-4 it was 43.6 µM (inactive); with HCC 2998, 32.4 µM (inactive); with SNB-19, 28.8 µM (inactive); in the experiment on 786-0 it was 18.7 µM (inactive); in the experiment on UACC-257, 27 µM (inactive). For the same compound, the GI50 is 13.7 µM with HCT-15; 20.2 µM (inactive) with OVCAR-3; 18.7 µM (inactive) in the experiment on OVCAR-8; 18 µM (inactive) with RPMI-8226; 19.6 µM (inactive) in the experiment on SF-268; 17.3 µM (inactive) in the experiment on CCRF-CEM. Besides, the GI50 in the experiment with IGROV-1 was 39.7 µM (inactive); in the experiment on KM12 it was 17.2 µM (inactive); in the experiment with SK-MEL-5, 36.7 µM (inactive).
Regarding `Nc1nc(N)c(-c2ccccc2)c(C(=O)Nc2nccs2)n1`, the GI50 with CAKI-1, in the experiment with OVCAR-4, with HCC 2998, with SNB-19, in the experiment on 786-0 and in the experiment with UACC-257 was > 100 µM (inactive) in each case. The GI50 is more than 100 µM with HCT-15; > 100 µM (inactive) in the experiment with OVCAR-3; > 100 µM (inactive) with OVCAR-8; > 100 µM (inactive) with RXF 393; > 100 µM (inactive) in the experiment with SF-268; > 100 µM (inactive) with CCRF-CEM. Also, the GI50 in the experiment with IGROV-1, in the experiment with KM12 and with SK-MEL-5 was > 100 µM (inactive) in each case.

In general, GI50 refers to the concentration at which growth is held to half of that of the control.
